In paper PMC11176637 (iScience, 2024):

Tested on: VSVΔG-SW (S glycoprotein of the SARS-CoV-2 Wuhan variant)
Test: microbe, parasite or virus in culture
Format: cell-based
Conditions: for IC50 against VSVΔG-SW: 0.3125–40 μM

CNC(=O)C(C#N)(Cc1cc(Cl)cc2c1OCOC2)Cc1cc(Cl)cc2c1OCOC2 [PCM-0068389, N-methyl3-(6-chloro-2,4-dihydro-1,3-benzodioxin-8-yl)-2-[(6-chloro-2,4-dihydro-1,3-benzodioxin-8-yl)methyl]-2-cyanopropionamide]
IC50 against VSVΔG-SW: lost all activity

Cc1cccc(NC(=O)CS(=O)(=O)c2nc(-c3ccccc3)cn2-c2ccc(Cl)cc2)c1C [PCM-0163855, 2-((1-(4-chlorophenyl)-4-phenyl-1H-imidazol-2-yl)sulfonyl)-N-(2,3-dimethylphenyl)acetamide]
IC50 (Severe acute respiratory syndrome coronavirus 2, read-out: IC50 against VSVΔG-SW): 600 nM

COc1ccc2cc3c(N)nn(C(=O)Cc4c[nH]c5ccccc45)c3nc2c1 [PCM-0166392, 1-{6-amino-12-methoxy-2,4,5-triazatricyclo[7.4.0.0³,⁷]trideca-1,3(7),5,8,10,12-hexaen-4-yl}-2-(3-indolyl)-1-ethanone]
IC50 against VSVΔG-SW: relatively high activity

Nc1nc(Nc2ccccc2)sc1C(=O)c1ccccc1Cl [PCM-0179622, (4-amino-2-anilino-1,3-thiazol-5-yl)(o-chlorophenyl)methanone]
IC50 against VSVΔG-SW: relatively high activity
